Laboratory results: patent US12103952B2, “Methods for expressing proteins in axons” (Cornell University, priority 2010, dated 2024)
Non-standard residues stand in square brackets, D forms with d. Residues, ends and D or L forms follow the SMILES beside them. Nle = CCCC[C@H](N)C(=O)O

How the values were obtained:
Format in all cases: cell-based, rat
CREB = CREB levels in severed axons by immunofluorescence; conditions: severed axons, inhibitor present during NGF removal
Protocol: FIGS. 7A-B are results showing the axonal translation and retrograde transport of endogenous CREB. (A) CREB levels in severed axons of E15 DRGs were assayed by immunofluorescence with a CREB-specific antibody. CREB was depleted on removal of NGF, with near complete loss of fluorescence signals by 3 hours. […] The error bars represent s.e.m. (n=40). (B) CREB is depleted from axon terminals in a microtubule-dependent manner. CREB levels in severed axons were monitored, as in A, after removal and restoration of NGF, in the presence of LLnL or colchicine. Colchicine, but not LLnL, blocked the reduction in CREB levels following removal of NGF. The error bars represent s.e.m. (n=40).
E15 rat or E13 mouse embryonic dorsal root ganglion (DRG) explants were plated on glass-bottom culture dishes (MatTek) or glass coverslips pre-coated with 33 μg/ml poly-D-lysine and 1 μg/ml laminin. CREB^α/Δ−/+ animals used to generate CREB^α/Δ−/− embryos were from Jackson Labs. E15 dissociated DRG neurons were prepared as described by Wu et al., Nature 436, 1020-1024 (2005). DRGs were cultured in B27/Neurobasal medium (Invitrogen) supplemented with 100 ng/ml nerve growth factor (NGF) and […] 5′-fluorodeoxyuridine (5-FdU) for 3 days. siRNA-mediated knockdown in DRG neurons has been described previously by Higuchi et al., Biochemical & Biophysical Research Communications 301, 804-809 (2003) and was performed using siRNAs listed in Table S3. For measurements of CREB levels in isolated axons, axons were severed from cell bodies by removing the explant with a flame-sharpened Pasteur pipette (Wu et al., Nature 436, 1020-1024 (2005)). Modified Boyden chambers were based on the procedure of Twiss (Zheng et al., Journal of Neuroscience 21, 9291-9303 (2001)) and modified to obtain distal axons as described by Wu et al., Nature 436, 1020-1024 (2005). mRNA from harvested axons (Wu et al., Nature 436, 1020-1024 (2005)) was used to prepare a cDNA library using a modified, unbiased single cell protocol as described below. See also Tietjen et al., Neuron 38, 161-175 (2003). Compartmented (Campenot) cultures were prepared as described below. See also Campenot, Proc Natl Acad Sci USA 74, 4516-4519 (1977)).
Images and measurements of signals in axons were taken from the terminal 50 μm of the axon, except where indicated. Analyzed axons were a minimum of 2000 μm for all experiments. DRGs were fixed with 4% PFA in CBS overnight at 4° C., permeabilized with 0.5% Triton X-100/TBS, and blocked in 4% BSA/TBS for 1 hour. DRGs were labeled with antibodies (Table S4) in 2% BSA/0.1% Triton X-100/TBS overnight at 4° C. For image acquisition details, see below.
The axonal localization of CREB was also examined by immunofluorescence. Axons were severed from cultured DRG explants to rule out potential contributions from anterograde transport of cell body-derived CREB. […] Although the majority of CREB protein localized to the nucleus, with substantially lower levels in axons (FIG. 4D), the immunofluorescence signal in axons was specific. Similar immunofluorescence staining was seen using a different CREB-specific antibody that recognized a non-overlapping epitope.
The importin proteins, which bind nuclear-localization sequences (NLS) (Goldfarb et al., Trends in Cell Biology 14, 505-514 (2004)), are present in axons and mediate the retrograde trafficking of axonally-injected fluorescently-labeled NLS peptides (Hanz et al., Neuron 40, 1095-1104 (2003)). Since CREB contains a NLS that mediates its nuclear localization (Waeber & Habener, Mol Endocrinol 5, 1418-1430 (1991)), axonal CREB may be retrogradely transported to the cell body. To determine if endogenously-expressed CREB is retrogradely trafficked, we examined the time course of CREB reduction in axons upon replacement of media with NGF-free media. […]

E15 DRG explant cultures = assay: Retrograde transport of photoactivatable Dendra-CREB reporter; conditions: in presence of inhibitor
Protocol: FIGS. 8A-D are results showing the retrograde transport of a photoactivatable fluorescent CREB reporter protein. (A) E15 DRG explant cultures were infected with Sindbis constructs expressing Dendra or Dendra-CREB transcripts. Dendra and Dendra-CREB were visualized as green fluorescence (top panel), and growth cone-localized Dendra[-CREB] was photoactivated to its red form by 50 ms illumination of the boxed regions with a 408 nm laser. Movement of photoactivated Dendra signals was analyzed within the axon determined by green Dendra fluorescence mask. […] Photoactivated Dendra[-CREB] images are shown inverted in order to more readily visualize signals. Scale bar, 10 μm. (B) Quantification of data in (A). […] The expected diffusion rate of Dendra-CREB was calculated at various elapsed time points, using a previously measured diffusion coefficient (D) in neurons (Bloodgood & Sabatini, Science 310, 866-869 (2005)), in the formula x^2=(2Dt), where x is the average displacement. […] (C) Dendra or Dendra-CREB was photoactivated by 1 s illumination of a 40 μm axon segment approximately 1 mm from its respective cell body and levels of photoactivated Dendra fluorescence were analyzed in the respective cell nucleus. […] (D) Quantification of data in (C). n=10 cells per data point. *p=0.0012. […]

[1] = system: CREB reporter mRNA translation in DRG axons; assay: myr-dEGFP3′CREB Sindbis translation reporter in axons; conditions: 40 μM LLnL, within 5 min, myr-dEGFP3′CREB-infected axons
Description: FIGS. 5A-C are results showing NGF-dependent translation of a CREB reporter mRNA in axons. (A) Schematic diagram of the Sindbis viral reporter construct used to monitor CREB translation. The reporter contains a myristoylated, destabilized EGFP (myr-dEGFP) with the 3′UTR of CREB, expressed under control of the Sindbis subgenomic promoter (PSG). (B) E15 DRG explant cultures were infected with Sindbis constructs expressing myr-dEGFP3′CREB on DIV3 and fluorescence (bottom panel) and phase (top panel) images, approximately 1000 μm from the cell body were collected after 24 hours. Fluorescence images are shown in inverted contrast in order to more readily visualize puncta. Scale bar, 25 μm. […] EGFP fluorescence co-localizes with a population of S6-labeled ribosomal clusters. […]
FIGS. 6A-H are data showing that axonal CREB is specifically translated in response to NGF. […] (B) E15 DRG explant cultures were infected with Sindbis constructs expressing myr-dEGFP3′RhoA or myr-dEGFP3′H1f0 on DIV3 and fluorescence images were collected after 24 h. […] (D) Axons from DIV3 DRGs were analyzed for CREB and mitochondrial localizations by immunofluorescence using CREB-specific and VDAC/porin1-specific antibodies. […] CREB mRNA was detected by FISH using a CREB specific riboprobe. […] (H) Axons of DIV3 DRG explant cultures were analyzed by immunofluorescence for NGF effectors CREB, pTrkA and pErk5 at 3 DIV. […]

Structure (SMILES) | reduction of CREB levels upon removal of NGF (CREB) | retrograde transport of Dendra-CREB (E15 DRG explant cultures) | eGFP fluorescence signal [1]
COc1cc2c(c(OC)c1OC)-c1ccc(OC)c(=O)cc1[C@@H](NC(C)=O)CC2 [colchicine] | abolished the reduction in CREB levels | significantly blocked | 
C=C(CC)C(=O)c1ccc(OCC(=O)O)c(Cl)c1Cl [ethacrynic acid] |  | significantly blocked | 
CCCC[C@@H](C=O)NC(=O)[C@H](CC(C)C)NC(=O)[C@H](CC(C)C)NC(C)=O [LLnL] (Ac-Leu-Leu-[Nle]-aldehyde) | unaffected |  | increased twofold
